ChEMBL document CHEMBL1201862, “PubChem BioAssay data set” (2004)
Active and inactive are the calls of the source.

Legend:
[1] = target: T1, Rac GTPase-activating protein 1 (Homo sapiens, UniProt Q9H0H5); test: MgcRacGAP GTPase-activating activity inhibitors, confirmation, biochemical, ADP Hunter fluorescence, primary and confirmatory (AID 624330); assay type: functional
T1 sequence (Q9H0H5 whole entry): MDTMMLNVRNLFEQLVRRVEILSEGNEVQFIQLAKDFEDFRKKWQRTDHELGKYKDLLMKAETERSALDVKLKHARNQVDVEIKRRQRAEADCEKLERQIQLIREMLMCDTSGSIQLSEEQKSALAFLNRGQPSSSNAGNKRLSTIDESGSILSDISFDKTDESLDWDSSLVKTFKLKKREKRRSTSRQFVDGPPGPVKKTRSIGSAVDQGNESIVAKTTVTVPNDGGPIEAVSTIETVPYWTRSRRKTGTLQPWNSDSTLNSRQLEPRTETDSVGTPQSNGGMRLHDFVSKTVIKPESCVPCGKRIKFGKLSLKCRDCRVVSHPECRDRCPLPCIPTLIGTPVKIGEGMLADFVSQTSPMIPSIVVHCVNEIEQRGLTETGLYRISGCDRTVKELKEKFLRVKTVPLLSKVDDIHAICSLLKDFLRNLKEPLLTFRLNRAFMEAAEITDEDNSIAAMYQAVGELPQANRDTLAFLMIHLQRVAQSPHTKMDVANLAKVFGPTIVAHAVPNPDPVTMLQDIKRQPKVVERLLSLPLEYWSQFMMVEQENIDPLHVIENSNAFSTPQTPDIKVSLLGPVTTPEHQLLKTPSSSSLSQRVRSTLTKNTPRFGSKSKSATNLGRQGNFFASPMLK

[2] = target: T2, Heat shock factor protein 1 (Mus musculus, UniProt P38532); test: HSF1 potentiators in luciferase reporter cells, confirmation, cell-based, NIH3T3, luminescence, dose retest (AID 435004); assay type: functional;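 further: stress induced by proteasome inhibitor MG132 added 30 min after compound; luciferase reporter driven by HSF1 response element in NIH3T3 cells; actives raise luminescence as potentiators of the MG132 stress response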
T2 sequence (P38532 whole entry): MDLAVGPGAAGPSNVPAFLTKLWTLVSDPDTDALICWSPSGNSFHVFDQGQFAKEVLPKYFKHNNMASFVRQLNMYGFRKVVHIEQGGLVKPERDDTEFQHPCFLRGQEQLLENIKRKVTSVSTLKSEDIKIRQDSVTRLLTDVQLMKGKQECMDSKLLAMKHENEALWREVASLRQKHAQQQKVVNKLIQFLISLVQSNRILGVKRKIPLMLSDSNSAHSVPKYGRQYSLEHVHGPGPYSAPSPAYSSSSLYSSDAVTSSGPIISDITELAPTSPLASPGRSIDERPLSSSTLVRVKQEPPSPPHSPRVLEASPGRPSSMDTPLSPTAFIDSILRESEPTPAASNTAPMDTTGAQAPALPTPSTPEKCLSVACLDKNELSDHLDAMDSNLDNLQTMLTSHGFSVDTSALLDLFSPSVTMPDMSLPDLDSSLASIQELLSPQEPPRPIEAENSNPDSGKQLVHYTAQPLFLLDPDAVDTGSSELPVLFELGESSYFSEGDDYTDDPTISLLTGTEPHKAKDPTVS

Paired box protein Pax-8 = Paired box protein Pax-8 (Homo sapiens, UniProt Q06710); test: inhibitors of PAX8-driven TPO luciferase reporter, dose response, RMG-I cells, cherry-pick (AID 687027); assay type: functional, cell-based;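 further: luciferase reporter driven by Pax8 target thyroperoxidase promoter measured by SteadyGlo luminescence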
Sequence of Paired box protein Pax-8 (Q06710 whole entry): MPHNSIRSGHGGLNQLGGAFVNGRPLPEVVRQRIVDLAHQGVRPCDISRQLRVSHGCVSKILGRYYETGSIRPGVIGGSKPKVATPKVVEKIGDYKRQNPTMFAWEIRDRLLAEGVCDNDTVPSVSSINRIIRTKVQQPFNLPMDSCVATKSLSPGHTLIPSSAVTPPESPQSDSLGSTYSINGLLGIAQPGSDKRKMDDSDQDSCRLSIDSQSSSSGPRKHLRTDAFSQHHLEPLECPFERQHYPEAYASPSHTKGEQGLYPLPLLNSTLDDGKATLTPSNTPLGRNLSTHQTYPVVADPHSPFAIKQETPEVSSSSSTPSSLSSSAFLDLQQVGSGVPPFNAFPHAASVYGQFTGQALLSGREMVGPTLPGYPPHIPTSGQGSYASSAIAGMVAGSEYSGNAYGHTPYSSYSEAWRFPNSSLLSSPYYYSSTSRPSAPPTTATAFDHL

Streptococcus = test: Group A Streptococcus viability loss, dose response, counter-screen for streptokinase expression inhibitor project, luminescence, BacTiterGlo (AID 1915); assay type: functional, organism-based; conditions: Streptococcus;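 further: potency for reduction of bacterial viability or growth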
[3] = test system: Streptococcus sp. 'group A'; test: growth inhibition of control SK(-) GAS strain, dose response, counter-screen for streptokinase expression inhibitor project, luminescence, kanamycin, BacTiterGlo, confirmation (AID 1900); assay type: functional, organism-based; conditions: Streptococcus sp. 'group A'
Cytochrome P450 2D6 = Cytochrome P450 2D6 (Homo sapiens, UniProt P10635);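 further: CYP2D6 member of a cytochrome P450 panel assay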
Sequence of Cytochrome P450 2D6 (P10635 whole entry): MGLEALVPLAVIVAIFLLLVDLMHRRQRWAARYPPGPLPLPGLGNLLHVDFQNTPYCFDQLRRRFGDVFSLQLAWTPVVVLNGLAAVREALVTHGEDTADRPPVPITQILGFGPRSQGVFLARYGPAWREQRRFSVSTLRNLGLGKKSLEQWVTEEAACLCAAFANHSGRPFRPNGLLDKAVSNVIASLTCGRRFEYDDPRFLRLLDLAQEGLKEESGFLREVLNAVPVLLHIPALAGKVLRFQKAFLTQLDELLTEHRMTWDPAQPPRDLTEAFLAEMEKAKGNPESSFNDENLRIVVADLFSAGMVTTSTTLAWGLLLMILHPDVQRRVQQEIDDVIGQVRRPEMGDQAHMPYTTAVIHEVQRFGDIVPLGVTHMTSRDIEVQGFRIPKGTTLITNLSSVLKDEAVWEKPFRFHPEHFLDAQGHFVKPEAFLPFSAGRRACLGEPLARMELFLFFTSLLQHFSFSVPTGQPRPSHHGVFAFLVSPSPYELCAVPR

Cytochrome P450 2C19 = Cytochrome P450 2C19 (Homo sapiens, UniProt P33261); test: Cytochrome panel assay with activity outcomes. Panel member name: p450-cyp2c19 Compounds with AC50 equal or less than 10 uM are considered active; assay type: functional; conditions: read-out: AC50
Sequence of Cytochrome P450 2C19 (P33261 whole entry): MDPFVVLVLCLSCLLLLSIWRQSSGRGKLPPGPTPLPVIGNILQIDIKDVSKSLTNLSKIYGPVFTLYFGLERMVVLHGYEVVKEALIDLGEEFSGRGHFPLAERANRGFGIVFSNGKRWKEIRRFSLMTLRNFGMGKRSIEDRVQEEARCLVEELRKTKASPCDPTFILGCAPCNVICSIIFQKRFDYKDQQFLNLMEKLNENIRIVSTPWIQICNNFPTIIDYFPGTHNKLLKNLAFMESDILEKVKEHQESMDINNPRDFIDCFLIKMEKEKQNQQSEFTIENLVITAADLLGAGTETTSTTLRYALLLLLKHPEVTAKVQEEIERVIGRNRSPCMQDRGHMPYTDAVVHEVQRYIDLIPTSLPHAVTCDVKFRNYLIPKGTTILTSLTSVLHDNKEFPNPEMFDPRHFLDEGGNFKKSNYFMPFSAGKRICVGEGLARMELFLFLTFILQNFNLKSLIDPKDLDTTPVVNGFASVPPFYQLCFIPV

[4] = target: T3, Corticotropin-releasing factor receptor 2/Corticotropin-releasing factor-binding protein (Homo sapiens, UniProt P24387+Q13324); test: activators of CRF receptor 2 with binding protein – uHTS hits, confirmation (AID 602473); assay type: functional; conditions: read-out: EC50_Mean
T3 sequence (Q13324 whole entry): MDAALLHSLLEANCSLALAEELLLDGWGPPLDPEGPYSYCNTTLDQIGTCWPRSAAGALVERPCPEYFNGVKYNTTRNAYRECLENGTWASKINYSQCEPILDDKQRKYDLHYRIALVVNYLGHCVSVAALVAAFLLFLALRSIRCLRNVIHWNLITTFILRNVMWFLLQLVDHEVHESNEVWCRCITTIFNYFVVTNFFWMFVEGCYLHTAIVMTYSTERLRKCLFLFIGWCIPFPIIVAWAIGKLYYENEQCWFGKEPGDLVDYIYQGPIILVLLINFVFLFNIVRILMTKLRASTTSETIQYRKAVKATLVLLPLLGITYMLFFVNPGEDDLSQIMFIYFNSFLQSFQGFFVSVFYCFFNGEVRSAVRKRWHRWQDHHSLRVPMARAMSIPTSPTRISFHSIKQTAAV
T3 sequence (P24387 whole entry): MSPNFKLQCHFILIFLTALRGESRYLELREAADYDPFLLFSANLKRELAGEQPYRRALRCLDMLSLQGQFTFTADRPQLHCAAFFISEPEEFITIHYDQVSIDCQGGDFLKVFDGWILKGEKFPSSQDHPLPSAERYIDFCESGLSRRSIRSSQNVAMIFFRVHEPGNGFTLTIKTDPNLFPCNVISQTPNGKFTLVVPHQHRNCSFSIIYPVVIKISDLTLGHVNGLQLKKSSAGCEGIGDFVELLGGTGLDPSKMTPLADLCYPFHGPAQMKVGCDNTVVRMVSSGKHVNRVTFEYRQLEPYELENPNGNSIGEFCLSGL

[5] = target: T2, Heat shock factor protein 1; test: inhibition of MG132-induced HSE-luciferase signal, confirmation, cell-based, NIH3T3, luminescence, dose retest (AID 2382); assay type: functional;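 further: NIH3T3 fibroblasts with HSF1-driven luciferase reporter stressed by proteasome inhibitor MG132; luminescence from HSF1-driven luciferase expression after 8 hours of MG132 stress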
Cytochrome P450 2C9 = Cytochrome P450 2C9 (Homo sapiens, UniProt P11712)
Sequence of Cytochrome P450 2C9 (P11712 whole entry): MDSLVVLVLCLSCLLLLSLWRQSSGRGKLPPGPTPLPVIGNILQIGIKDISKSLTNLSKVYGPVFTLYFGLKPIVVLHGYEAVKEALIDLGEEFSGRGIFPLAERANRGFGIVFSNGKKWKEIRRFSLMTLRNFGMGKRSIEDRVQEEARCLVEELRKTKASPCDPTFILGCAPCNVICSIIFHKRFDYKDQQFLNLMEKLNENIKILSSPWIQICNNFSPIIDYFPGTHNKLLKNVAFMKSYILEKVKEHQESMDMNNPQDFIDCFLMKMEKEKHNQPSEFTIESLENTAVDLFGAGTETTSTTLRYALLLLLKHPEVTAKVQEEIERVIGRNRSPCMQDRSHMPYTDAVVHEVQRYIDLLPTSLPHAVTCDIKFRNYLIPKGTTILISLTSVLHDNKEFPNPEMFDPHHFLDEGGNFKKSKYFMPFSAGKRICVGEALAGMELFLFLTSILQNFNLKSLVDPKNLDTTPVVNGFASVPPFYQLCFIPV

## O=C(CNc1ccc2c(c1)OCO2)N/N=C\c1ccccc1Cl
[1]
  IC50: 114 µM (active)

## O=C(CSCc1ccc(Br)cc1)N1CCCC1
[2]
  EC50: 108 µM (active)

## O=C(Cc1ccccn1)N1CCCCN2[C@@H](CO)[C@@H](c3ccc(-c4ccc(F)cc4)cc3)[C@@H]2C1
Paired box protein Pax-8
  AC50: 22.6 µM (active)

## CCC(=O)N1N/C(=C2/C(=O)NC(=O)N(CCc3ccccc3)C2=O)CC1c1ccc(OC)c(OC)c1 (stereo unspecified)
Streptococcus
  EC50: 26.4 µM (active)
[3]
  EC50: 1.4 µM (active)

## O=C(c1ccc(Cl)c(S(=O)(=O)N2CCCCCC2)c1)N1CCN(c2ccc(O)cc2)CC1
[1]
  IC50: 33.7 µM (active)

## Cc1ccc(N(C(=O)Cn2nnc(-c3ccc(F)cc3)n2)C(CC(C)C)C(=O)NCC2CCCO2)cc1 (stereo unspecified)
Cytochrome P450 2D6
  AC50: 25.1 µM (inconclusive)

## COCCN(CCOC)c1nc(-c2ccc(C)cc2)nc2ccccc12
[2]
  EC50: > 260 µM (inactive)

## O=C(CN1C(=O)NC2(CCCc3ccccc32)C1=O)Nc1cccc(S(=O)(=O)N2CCCCC2)c1 (stereo unspecified)
[2]
  EC50: > 260 µM (inactive)

## CC12CCC3C(CC=C4CC(O)CCC43C)C1C/C(=C\N1CCCC1)C2=O (stereo unspecified)
[2]
  EC50: > 260 µM (inactive)

## Cc1ccc2nc(-c3cccnc3)oc2c1
Cytochrome P450 2C19
  AC50: 28.2 µM (inconclusive)
Cytochrome P450 2D6
  AC50: 5.62 µM (inconclusive)

## Cc1c(N=C2N=C(NC(=O)c3ccc(F)cc3)c3ccccc32)c(=O)n(-c2ccccc2)n1C
[4]
  EC50: 15.6 µM (active)

## CS(=O)(=O)Nc1cccc(-c2cncnc2NCc2cccnc2)c1
Cytochrome P450 2D6
  AC50: 39.8 µM (inconclusive)

## COCCNc1ccnc(-c2ccccc2CN(C)C)n1
Cytochrome P450 2D6
  AC50: 39.8 µM (inconclusive)

## Cc1nc2ccc(C(=O)Nc3ccc(N(C)C)cc3)cc2s1
[1]
  IC50: 39.3 µM (active)

## COc1ccc(O/C(=N\S(=O)(=O)c2ccccc2)c2ccccc2)cc1
[1]
  IC50: 45.5 µM (active)

## O=C(O)c1ccn(Cn2cnc3ccccc32)n1
[5]
  EC50: > 195 µM (not active)

## CCN(CC)CCCNCC(=O)Nc1cc(C)on1
[1]
  IC50: 99.4 µM (active)

## CCOc1cccc(C2NCc3ccccc3-n3cccc32)c1O (stereo unspecified)
[2]
  EC50: > 260 µM (inactive)

## CCc1c2c(nc3c(C(C)C)cccc13)-c1cccc(=O)n1C2
Cytochrome P450 2C19
  AC50: 20 µM (inconclusive)
Cytochrome P450 2D6
  AC50: 39.8 µM (inconclusive)

## Cc1nc([N+](=O)[O-])cn1-c1ccc(N)cc1
[5]
  EC50: > 195 µM (not active)

## Brc1ccccc1OCCCCCN1CCOCC1
[1]
  IC50: 146 µM (active)

## O=[N+]([O-])c1cccc(-c2ncc3ccccn23)c1
[2]
  EC50: > 260 µM (inactive)

## Cc1cccc(C)c1NC(=O)CN1C(=O)NC(C)(CCc2ccccc2)C1=O (stereo unspecified)
[5]
  EC50: > 195 µM (not active)

## N#C/C(=C/c1cc(Br)cs1)C(=O)NCC1CCCO1 (stereo unspecified)
[5]
  EC50: > 195 µM (not active)

## CCN(C(=O)c1ccc2c(SCC(=O)O)c3c(nc2c1)CCC3)c1cc(Cl)ccc1OC
[5]
  EC50: > 195 µM (not active)

## Cc1nc2c(C(=O)N3CCOCC3)cnn2c(C)c1Cc1ccc(Cl)cc1
Cytochrome P450 2D6
  AC50: 25.1 µM (inconclusive)

## COc1cc(CNc2ncnc3c2ncn3[C@H]2CN(Cc3ccc(-c4ccccc4)cc3)C[C@@H](CO)O2)cc(OC)c1OC
Paired box protein Pax-8
  AC50: 7.36 µM (active)

## O=C(NCc1cc(C(F)(F)F)cc(C(F)(F)F)c1)C1CC(c2cccc([N+](=O)[O-])c2)=NO1 (stereo unspecified)
[2]
  EC50: 38.4 µM (active)

## COc1ccc(N2CCN(C(CNS(=O)(=O)c3cccs3)c3cccnc3)CC2)cc1 (stereo unspecified)
[1]
  IC50: 120 µM (active)

## NC(S)=NNc1ccnc2cc(Cl)ccc12
[1]
  IC50: 110 µM (active)

## COC(=O)c1ccccc1N=C(S)N(Cc1ccc2c(c1)OCO2)Cc1cc2ccc(OC)cc2nc1O
[2]
  EC50: > 260 µM (inactive)

## Cc1ccc(OC(=O)c2ccc3nc(C)sc3c2)cc1
[5]
  EC50: 0.737 µM (active)

## C[C@@H]1CN([C@H](C)CO)C(=O)Cc2cc(NC(=O)Nc3ccc(F)cc3)ccc2O[C@H]1CN(C)C(=O)Nc1ccc(C(F)(F)F)cc1
Paired box protein Pax-8
  AC50: 11.4 µM (active)

## CC(=O)c1cnn(-c2c(Cl)cc(Cl)cc2Cl)c1C
[5]
  EC50: > 195 µM (not active)

## Cc1ccccc1NC(=O)COC(=O)c1ccc(S(C)(=O)=O)c([N+](=O)[O-])c1
[5]
  EC50: 6.14 µM (active)

## CCOC(=O)C1(CC2CCCCO2)CCN(Cc2nc3ccccc3[nH]2)CC1 (stereo unspecified)
[5]
  EC50: > 195 µM (not active)

## O=C(Cn1[nH]c(=O)c2ccccc2c1=O)OCC(=O)c1ccccc1Cl
[5]
  EC50: > 195 µM (not active)

## Cn1cccc1/C=N/N1CCN(Cc2ccccc2Cl)CC1
[1]
  IC50: 82.1 µM (active)

## C=CCn1c(=O)c2c3c(sc2n2c(Nc4ccccc4)nnc12)CCCC3
[2]
  EC50: > 260 µM (inactive)

## OCC1(CCCc2ccccc2)CCN(C2CCSCC2)CC1
[2]
  EC50: > 260 µM (inactive)

## O[C@]1(c2ccccc2)c2ccccc2N=C2NCCN21
Cytochrome P450 2D6
  AC50: 2.51 µM (inconclusive)

## Cn1cccc1C(=O)N1CCC[C@@]2(CCN(Cc3ccc(C#N)cc3)C2)C1
Cytochrome P450 2D6
  AC50: 20 µM (inconclusive)

## Cn1c(N)c(-c2ccccc2)c2ccc([N+](=O)[O-])cc2c1=O
[4]
  EC50: 4.5 µM (active)

## Cc1ccc2[nH]c(SCC(=O)c3ccc(Cl)s3)nc2c1
Streptococcus
  EC50: > 150 µM (not active)
[3]
  EC50: > 150 µM (not active)

## CCCn1nc(C(=O)NCC(C)(C)N2CCOCC2)c2ccccc2c1=O
Cytochrome P450 2C9
  AC50: 39.8 µM (inconclusive)
Cytochrome P450 2D6
  AC50: 3.98 µM (inconclusive)

## CCOc1cc(C=NNC(=O)CCCC(=O)NN=Cc2ccc(O)c(OCC)c2)ccc1O
[1]
  IC50: 50.4 µM (active)

## CC(=O)Nc1ccc(NC(=O)CSc2cn(CC(=O)N3CCOCC3)c3ccccc23)cc1
[5]
  EC50: > 195 µM (not active)

## CC(C)(C)OC(=O)NCCCC[C@H](NC(=O)c1[nH]cnc1C(=O)N[C@@H](Cc1ccccc1)C(=O)OC(C)(C)C)C(=O)OC(C)(C)C
Paired box protein Pax-8
  AC50: 7.6 µM (active)

## O=C(NCc1ccccc1)[C@]1(C(F)(F)F)C[C@H](CCc2ccccc2)CCCO1
[5]
  EC50: > 195 µM (not active)

## CC(C)N1CCC(N2CCN(C3CCCC3)CC2CCO)CC1 (stereo unspecified)
[5]
  EC50: > 195 µM (not active)

## COc1cc(/C=C2\SC(=S)N(NC(=O)c3ccc(O)cc3)C2=O)ccc1O
[1]
  IC50: 59 µM (active)

## CCN(CC)S(=O)(=O)c1cccc(-c2nnc(SCC(N)=O)n2CCc2ccccc2)c1
[5]
  EC50: > 195 µM (not active)

## Cc1ccccc1N1CCN(S(=O)(=O)Cc2ccccc2)CC1
[2]
  EC50: > 260 µM (inactive)

## CC(=O)c1ccccc1NC(=O)C1C2CCC(O2)C1C(=O)O (stereo unspecified)
[2]
  EC50: > 260 µM (inactive)

## CCOc1cc(/C=N/NC(=O)c2cc(C3CC3)[nH]n2)ccc1O
[1]
  IC50: 54.9 µM (active)

## COc1cc(/C=N\NC(=O)c2ccc(-c3ccccc3)cc2)cc(OC)c1OC(C)=O
Paired box protein Pax-8
  AC50: 0.728 µM (active)
